Patent US20240252488A1 (KOREA RESEARCH INSTITUTE OF CHEMICAL TECHNOLOGY, priority 2020, published 2024)

Tests used:
MLKL [1] = molecular target: T1, MLKL (Homo sapiens, UniProt Q8NB16); assay: Measurement of binding affinity with MLKL receptor (competitive binding assay, Kd); parameters: made in house; host or cells: HEK 293 cell line (T7 phage in E. coli BL21-derived host is also described)
T1 sequence (Q8NB16 1-471): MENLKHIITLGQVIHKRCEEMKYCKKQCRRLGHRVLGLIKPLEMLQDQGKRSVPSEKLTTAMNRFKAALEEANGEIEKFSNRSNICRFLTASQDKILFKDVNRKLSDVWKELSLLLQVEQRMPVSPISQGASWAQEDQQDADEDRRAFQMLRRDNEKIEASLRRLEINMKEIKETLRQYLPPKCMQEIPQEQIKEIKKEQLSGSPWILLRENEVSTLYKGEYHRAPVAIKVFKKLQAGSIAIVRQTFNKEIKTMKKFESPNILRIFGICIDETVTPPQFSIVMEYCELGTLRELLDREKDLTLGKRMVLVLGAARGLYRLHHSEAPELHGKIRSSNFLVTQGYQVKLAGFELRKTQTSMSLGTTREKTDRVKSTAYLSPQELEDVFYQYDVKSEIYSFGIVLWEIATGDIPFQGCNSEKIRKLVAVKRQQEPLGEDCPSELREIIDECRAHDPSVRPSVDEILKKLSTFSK
Summary of the method: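 Kd from an immobilized-ligand competition format: the DNA-tagged kinase from HEK 293 expression is eluted and quantified by qPCR. Compounds added from 111× DMSO stocks, final DMSO 0.9%.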

FADD−/− Jurkat cells = assay: Necroptosis inhibition assay, TNF-α-induced necroptosis (CellTiter-Glo 2.0); assay type: cell-based, human; conditions: TNF-α 15 ng/mL; for Necroptosis inhibition assay (Rescue %) 1 μM: compound 1 μM; for Necroptosis inhibition assay (Rescue %) 10 μM: compound 10 μM
Summary of the method: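 Necroptosis induced by 15 ng/mL TNF-α (final) for 20–24 h at 37 °C, after a 30 min room-temperature pretreatment of FADD-deficient Jurkat cells with 0.1, 1 or 10 μM compound. ATP-based luminescence gave viability, from which inhibition rate and cytotoxicity were derived.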

MLKL [2] = molecular target: T1, MLKL; assay: MLKL degradation assay in HepG2 cell line (western blot); assay type: cell-based; parameters: endogenous in cells; host or cells: HepG2 or HaCaT; conditions: cell line not given; for Degradation assay (Degradation %) 10 μM: compound 10 μM; for Degradation assay (Degradation %) 1 μM: compound 1 μM
Summary of the method: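 Western blot chemiluminescence of MLKL in equal-protein lysates (10-15 μg, BCA-adjusted). Before lysis, HepG2 cells were exposed to 1 or 10 μM (final) test compound for 20-24 h at 37 °C.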

SMILES | Kd (MLKL [1]) | Degradation assay (Degradation %) 10 μM (MLKL [2]) | Degradation assay (Degradation %) 1 μM (MLKL [2]) | Necroptosis inhibition assay (Rescue %) 1 μM (FADD−/− Jurkat cells) | Necroptosis inhibition assay (Rescue %) 10 μM (FADD−/− Jurkat cells) | Necroptosis inhibition assay (Rescue %) 1 μM (FADD−/− Jurkat cells; FADD−/− Jurkat cells) | Necroptosis inhibition assay (Rescue %) 10 μM (FADD−/− Jurkat cells; FADD−/− Jurkat cells)
Nc1ncc(-c2cnn(C3CCN(C(=O)CC4CCN(C(=O)CC5CCN(c6ccc7c(c6)C(=O)N(C6CCC(=O)NC6=O)C7=O)CC5)CC4)CC3)c2)nc1C(=O)O[C@@H](C(=O)Nc1ccc(F)cc1)c1ccccc1 (stereo partly drawn) [TDH-402, (R)-2-((4-fluorophenyl)amino)-2-oxo-1-phenylethyl 3-amino-6-(1-(1-(2-(1-(2-(1-(2-(2,6-dioxopiperidin-3-yl)-1,3-dioxoisoindolin-5-yl)piperidin-4-yl)acetyl)piperidin-4-yl)acetyl)piperidin-4-yl)-1H-pyrazol-4-yl)pyrazine-2-carboxylate] | 7.7 nM | 48.34% | 65.36% |  |  | 23.40% | 19.16%
Nc1ncc(-c2cnn([C@H]3CCN(CCOCCOCCNC(=O)CNc4cccc5c4C(=O)N(C4CCC(=O)NC4=O)C5=O)C3)c2)nc1C(=O)OC(C(=O)Nc1ccc(F)cc1)c1ccccc1 (stereo partly drawn) [TDH-263, 2-((4-fluorophenyl)amino)-2-oxo-1-phenylethyl 3-amino-6-(1-((3S)-1-(2-(2-(2-(2-((2-(2,6-dioxopiperidin-3-yl)-1,3-dioxoisoindolin-4-yl)amino)acetamido)ethoxy)ethoxy)ethyl)pyrrolidin-3-yl)-1H-pyrazol-4-yl)pyrazine-2-carboxylate] | 7.4 nM | 71.82% | 76.27% | 16.13% | 57.97% |  | 
COc1ccc(C(=O)N2CCC(OCCN3CCC(CN4CCC(n5cc(-c6cnc(N)c(C(=O)O[C@@H](C(=O)Nc7ccc(F)cc7)c7ccccc7)n6)cn5)CC4)CC3)CC2)cc1N1CCC(=O)NC1=O [TDH-506, (R)-2-((4-fluorophenyl)amino)-2-oxo-1-phenylethyl 3-amino-6-(1-(1-((1-(2-((1-(3-(2,4-dioxotetrahydropyrimidin-1(2H)-yl)-4-methoxybenzoyl)piperidin-4-yl)oxy)ethyl)piperidin-4-yl)methyl)piperidin-4-yl)-1H-pyrazol-4-yl)pyrazine-2-carboxylate] | 0.6 nM | 88.65% | 88.53% |  |  | 75.45% | 48.09%
Nc1ncc(-c2cnn(C3CCN(C(=O)CC4CCN(C(=O)COc5cccc6c5C(=O)N(C5CCC(=O)NC5=O)C6=O)CC4)CC3)c2)nc1C(=O)O[C@@H](C(=O)Nc1ccc(F)cc1)c1ccccc1 (stereo partly drawn) [TDH-337, (R)-2-((4-fluorophenyl)amino)-2-oxo-1-phenylethyl 3-amino-6-(1-(1-(2-(1-(2-((2-(2,6-dioxopiperidin-3-yl)-1,3-dioxoisoindolin-4-yl)oxy)acetyl)piperidin-4-yl)acetyl)piperidin-4-yl)-1H-pyrazol-4-yl)pyrazine-2-carboxylate] | 2.5 nM | 65.07% | 46.82% | 32.31% | 45.5% |  | 
Nc1ncc(-c2cnn(C3CCN(CC4CCN(C(=O)CCc5ccc6c(c5)C(=O)N(C5CCC(=O)NC5=O)C6=O)CC4)CC3)c2)nc1C(=O)O[C@@H](C(=O)Nc1ccc(F)cc1)c1ccccc1 (stereo partly drawn) [TDH-328, (R)-2-((4-fluorophenyl)amino)-2-oxo-1-phenylethyl 3-amino-6-(1-(1-((1-(3-(2-(2,6-dioxopiperidin-3-yl)-1,3-dioxoisoindolin-5-yl)propanoyl)piperidin-4-yl)methyl)piperidin-4-yl)-1H-pyrazol-4-yl)pyrazine-2-carboxylate] | 1.8 nM | 58.46% | 69.07% | 52.22% | 31.65% |  | 

Continued by falling Kd (MLKL [1]), values first:

Kd (MLKL [1]) | Degradation assay (Degradation %) 10 μM (MLKL [2]) | Degradation assay (Degradation %) 1 μM (MLKL [2]) | SMILES | Necroptosis inhibition assay (Rescue %) 1 μM (FADD−/− Jurkat cells) | Necroptosis inhibition assay (Rescue %) 10 μM (FADD−/− Jurkat cells) | Necroptosis inhibition assay (Rescue %) 1 μM (FADD−/− Jurkat cells; FADD−/− Jurkat cells) | Necroptosis inhibition assay (Rescue %) 10 μM (FADD−/− Jurkat cells; FADD−/− Jurkat cells)
13 nM | 4.57% |  | Nc1ncc(-c2cnn(C3CCN(C(=O)COCCOCCNC(=O)CNc4cccc5c4C(=O)N(C4CCC(=O)NC4=O)C5=O)CC3)c2)nc1C(=O)O[C@@H](C(=O)Nc1ccc(F)cc1)c1ccccc1 (stereo partly drawn) [TDH-190, (R)-2-((4-fluorophenyl)amino)-2-oxo-1-phenylethyl 3-amino-6-(1-(1-(2-(2-(2-(2-((2-(2,6-dioxopiperidin-3-yl)-1,3-dioxoisoindolin-4-yl)amino)acetamido)ethoxy)ethoxy)acetyl)piperidin-4-yl)-1H-pyrazol-4-yl)pyrazine-2-carboxylate] | 39.55% | 43.59% |  | 
8.1 nM | 57.99% | 70.94% | Nc1ncc(-c2cnn(C3CCN(CCC4CCN(c5ccc6nnn(C7CCC(=O)NC7=O)c(=O)c6c5)CC4)CC3)c2)nc1C(=O)OC(C(=O)Nc1ccc(F)cc1)c1ccccc1 (stereo not shown) [TDH-295, 2-((4-fluorophenyl)amino)-2-oxo-1-phenylethyl 3-amino-6-(1-(1-(2-(1-(3-(2,6-dioxopiperidin-3-yl)-4-oxo-3,4-dihydrobenzo[d][1,2,3]triazin-6-yl)piperidin-4-yl)ethyl)piperidin-4-yl)-1H-pyrazol-4-yl)pyrazine-2-carboxylate] | 63.46% | 37.73% |  | 
5.2 nM | 46.89% | 9.84% | Nc1ncc(-c2cnn(C3CCN(CCOCCOCCNC(=O)C4CCN(c5cccc6c5C(=O)N(C5CCC(=O)NC5=O)C6=O)CC4)CC3)c2)nc1C(=O)O[C@@H](C(=O)Nc1ccc(F)cc1)c1ccccc1 (stereo partly drawn) [TDH-110, (R)-2-((4-fluorophenyl)amino)-2-oxo-1-phenylethyl 3-amino-6-(1-(1-(2-(2-(2-(1-(2-(2,6-dioxopiperidin-3-yl)-1,3-dioxoisoindolin-4-yl)piperidine-4-carboxamido)ethoxy)ethoxy)ethyl)piperidin-4-yl)-1H-pyrazol-4-yl)pyrazine-2-carboxylate] | 55.93% | 72.8% |  | 
4.4 nM | 53.09% | 19.42% | Nc1ncc(-c2cnn(C3CCN(CCOCCOCCOCCNC(=O)C4CN(c5ccc6c(c5)C(=O)N(C5CCC(=O)NC5=O)C6=O)C4)CC3)c2)nc1C(=O)O[C@@H](C(=O)Nc1ccc(F)cc1)c1ccccc1 (stereo partly drawn) [TDH-142, (R)-2-((4-fluorophenyl)amino)-2-oxo-1-phenylethyl 3-amino-6-(1-(1-(1-(1-(2-(2,6-dioxopiperidin-3-yl)-1,3-dioxoisoindolin-5-yl)azetidin-3-yl)-1-oxo-5,8,11-trioxa-2-azatridecan-13-yl)piperidin-4-yl)-1H-pyrazol-4-yl)pyrazine-2-carboxylate] | 12.69% | 50.51% |  | 
2.6 nM | 58.09% | 42.05% | Nc1ncc(-c2cnn([C@H]3CCN(CC4CCN(C(=O)COc5ccc6c(c5)C(=O)N(C5CCC(=O)NC5=O)C6=O)CC4)C3)c2)nc1C(=O)OC(C(=O)Nc1ccc(F)cc1)c1ccccc1 (stereo partly drawn) [TDH-284, 2-((4-fluorophenyl)amino)-2-oxo-1-phenylethyl 3-amino-6-(1-((3S)-1-((1-(2-((2-(2,6-dioxopiperidin-3-yl)-1,3-dioxoisoindolin-5-yl)oxy)acetyl)piperidin-4-yl)methyl)pyrrolidin-3-yl)-1H-pyrazol-4-yl)pyrazine-2-carboxylate] | 75.95% | 52.77% |  | 
